In US10294234B2, “HIV inhibitor compounds” (priority 2017, dated 2019):

How the values were obtained:
[1] = system: HIV-1 (IIIB) in MT-4 cells; experiment: MT-4 HIV assay; format: cell-based; conditions: Human immunodeficiency virus 1, MT4, 120 h; HIV-1 (IIIB), MT-4 cells, 5 days, Cell Titer Glo; read-out: EC50
How it was run: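 Antiviral activity was read by Cell Titer Glo after a 5-day, 37 °C culture of MT-4 cells pre-infected with a 1:250 dilution of HIV-1 (IIIB). Compounds were tested as threefold dilution series in complete RPMI. Controls were no drug, mock infection and 5 uM AZT.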

[2] = microsomes
How it was run: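 Each compound (1 uM) is incubated in duplicate with 0.5 mg/mL liver microsomal protein from dog, rat or human plus NADPH-regenerating system. Samples taken at 2, 12, 25, 45 and 65 minutes are deproteinised and quantified by LC/MS/MS. Half-life gives Clint.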

[3] = 3H Human Predicted Clearance Assay (tritiated analogs); format: in vitro ADME; conditions: human, 1 uM
Method: 3H Human Predicted Clearance Assay:
For certain compounds, tritiated analogs (H^3) were prepared to further determined their human predicted clearance with increased resolution. Those studies were performed as described above using the tritiated analogs. Data from those compounds is found in Table 2 below and reported in FIG. 1 (note ATV and DRV were not tritiated).

in vivo = conditions: rat, in vivo; for Vd / RAT PO F: male, SD; for Vd / RAT IV CL / RAT IV T1/2: iv; for RAT PO F: 2.5 mg/kg
How it was run: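 Male SD rats (n=3/group, 0.27–0.32 kg), fasted overnight, given 0.5 or 1.0 mg/kg by 30-min IV infusion, or by oral gavage. Serial plasma samples (EDTA-K2) over 24 h measured by LC/MS/MS; non-compartmental PK analysis.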

SMILES	EC50 [1] [nM]	Dog. Pred. Cl. [2] [L/H/kg]	Human Pred Cl. [2] [L/H/kg]	Rat. Pred. Cl. [2] [L/H/kg]	3H Human Predicted Cl. [3]	Vd (in vivo) [L/kg]	RAT PO F (in vivo) [%]	RAT IV CL (in vivo) [mL/min/kg]	RAT IV T1/2 (in vivo) [h]
COC(=O)N[C@H](C(=O)N[C@@H](Cc1ccc(C#Cc2ccc(N3CC4CCC(C3)N4C3COC3)nc2)cc1)[C@@H](O)CN(Cc1c(F)cc(-c2ccn(CC(F)F)n2)cc1F)NC(=O)[C@@H](NC(=O)OC)C(C)(C)C(F)(F)F)C(C)(C)C(F)(F)F [Example 46, Methyl ((5S,10S,11S,14S)-8-(4-(1-(2,2-difluoroethyl)-1H-pyrazol-3-yl)-2,6-difluorobenzyl)-16,16,16-trifluoro-10-hydroxy-15,15-dimethyl-11-(4-((6-(8-(oxetan-3-yl)-3,8-diazabicyclo[3.2.1]octan-3-yl)pyridin-3-yl)ethynyl)benzyl)-3,6,13-trioxo-5-(1,1,1-trifluoro-2-methylpropan-2-yl)-2-oxa-4,7,8,12-tetraazahexadecan-14-yl)carbamate]	4.34	1.64	<0.11	0.19	0.04	4.22	13	7.5	9.22
COC(=O)N[C@H](C(=O)NN(Cc1c(F)cc(-c2ccn(C(F)F)n2)cc1F)C[C@H](O)[C@H](Cc1ccc(C#Cc2ccc(N3CC4CCC(C3)N4C3COC3)nc2)cc1)NC(=O)[C@@H](NC(=O)OC)C(C)(C)C(F)(F)F)C(C)(C)C [Example 73, Methyl ((5S,8S,9S,14S)-11-(4-(1-(difluoromethyl)-1H-pyrazol-3-yl)-2,6-difluorobenzyl)-9-hydroxy-15,15-dimethyl-8-(4-((6-(8-(oxetan-3-yl)-3,8-diazabicyclo[3.2.1]octan-3-yl)pyridin-3-yl)ethynyl)benzyl)-3,6,13-trioxo-5-(1,1,1-trifluoro-2-methylpropan-2-yl)-2-oxa-4,7,11,12-tetraazahexadecan-14-yl)carbamate]	4.72		0.13	<0.18	0.09	3.34	35	5.33	9.43
COC(=O)N[C@H](C(=O)N[C@@H](Cc1ccc(C#Cc2cnc(N3CC4CCC(C3)N4C3COC3)nc2)cc1)[C@@H](O)CN(Cc1c(F)cc(-c2ncccn2)cc1F)NC(=O)[C@@H](NC(=O)OC)C(C)(C)C(F)(F)F)C(C)(C)C(F)(F)F [Example 89, Methyl ((5S,8S,9S,14S)-11-(2,6-difluoro-4-(pyrimidin-2-yl)benzyl)-16,16,16-trifluoro-9-hydroxy-15,15-dimethyl-8-(4-((2-(8-(oxetan-3-yl)-3,8-diazabicyclo[3.2.1]octan-3-yl)pyrimidin-5-yl)ethynyl)benzyl)-3,6,13-trioxo-5-(1,1,1-trifluoro-2-methylpropan-2-yl)-2-oxa-4,7,11,12-tetraazahexadecan-14-yl)carbamate]	3.32	1.67	<0.11	<0.18	0.08	3.53	44.2	5	10.2
COC(=O)N[C@H](C(=O)N[C@@H](Cc1ccc(C#Cc2ccc(N3CC4CCC(C3)N4C3COC3)nc2)cc1)[C@@H](O)CN(Cc1c(F)cc(-c2ncccn2)cc1F)NC(=O)[C@@H](NC(=O)OC)C(C)(C)C(F)(F)F)C(C)(C)C(F)(F)F [Example 101, Methyl ((5S,8S,9S,14S)-11-(2,6-difluoro-4-(pyrimidin-2-yl)benzyl)-16,16,16-trifluoro-9-hydroxy-15,15-dimethyl-8-(4-((6-(8-(oxetan-3-yl)-3,8-diazabicyclo [3.2.1]octan-3-yl)pyridin-3-yl)ethynyl)benzyl)-3,6,13-trioxo-5-(1,1,1-trifluoro-2-methylpropan-2-yl)-2-oxa-4,7,11,12-tetraazahexadecan-14-yl)carbamate]	4.22		<0.11	<0.18	0.08	6.07	38.4	8	10
COC(=O)N[C@H](C(=O)N[C@@H](Cc1ccc(-c2cnc(N3CC4CCC(C3)N4C3COC3)nc2)cc1)[C@@H](O)CN(Cc1c(F)cc(-c2ccn(C(F)F)n2)cc1F)NC(=O)[C@@H](NC(=O)OC)C(C)(C)C(F)(F)F)C(C)(C)C(F)(F)F [Example 199, Methyl ((5S,8S,9S,14S)-11-(4-(1-(difluoromethyl)-1H-pyrazol-3-yl)-2,6-difluorobenzyl)-16,16,16-trifluoro-9-hydroxy-15,15-dimethyl-8-(4-(2-(8-(oxetan-3-yl)-3,8-diazabicyclo[3.2.1]octan-3-yl)pyrimidin-5-yl)benzyl)-3,6,13-trioxo-5-(1,1,1-trifluoro-2-methylpropan-2-yl)-2-oxa-4,7,11,12-tetraazahexadecan-14-yl)carbamate]	2.72	0.91	<0.11	0.48	0.15	1.07	14.7	7.67	2.09
COC(=O)N[C@H](C(=O)N[C@@H](Cc1ccc(C#Cc2ccc(N3CC4CCC(C3)N4C3COC3)nc2)cc1)[C@@H](O)CN(Cc1c(F)cc(-c2cc(F)ccn2)cc1F)NC(=O)[C@@H](NC(=O)OC)C(C)(C)C(F)(F)F)C(C)(C)C(F)(F)F [Example 239, methyl ((5S,8S,9S,14S)-11-(2,6-difluoro-4-(4-fluoropyridin-2-yl)benzyl)-16,16,16-trifluoro-9-hydroxy-15,15-dimethyl-8-(4-((6-(8-(oxetan-3-yl)-3,8-diazabicyclo[3.2.1]octan-3-yl)pyridin-3-yl)ethynyl)benzyl)-3,6,13-trioxo-5-(1,1,1-trifluoro-2-methylpropan-2-yl)-2-oxa-4,7,11,12-tetraazahexadecan-14-yl)carbamate]	4.45		<0.11	<0.18	0.13	5.49	26.3	6.7	12.9
